BindingDB's records for doi:10.1016/s0968-0896(99)00306-5 (University of Bologna, 2000)

Key:
Cholinesterase = Cholinesterase (Homo sapiens, UniProt P06276); experiment: Cholinesterase Inhibition Assay; conditions: pH 8; 37 °C
Procedure: (§1) The cholinesterase assays were performed using colorimetric method reported by Ellman. The absorbance changes at 412 nm were recorded for 5 min with a Jasco Uvidec-610 double beam Spectrophotometer. The reaction rates were compared and the percent inhibition due to the presence of test compounds was calculated. Inhibition curve was obtained for each compound.

Acetylcholinesterase = Acetylcholinesterase (Homo sapiens, UniProt P22303); experiment: Cholinesterase Inhibition Assay
Procedure: as §1

Cholinesterase, sequence (P06276 whole entry): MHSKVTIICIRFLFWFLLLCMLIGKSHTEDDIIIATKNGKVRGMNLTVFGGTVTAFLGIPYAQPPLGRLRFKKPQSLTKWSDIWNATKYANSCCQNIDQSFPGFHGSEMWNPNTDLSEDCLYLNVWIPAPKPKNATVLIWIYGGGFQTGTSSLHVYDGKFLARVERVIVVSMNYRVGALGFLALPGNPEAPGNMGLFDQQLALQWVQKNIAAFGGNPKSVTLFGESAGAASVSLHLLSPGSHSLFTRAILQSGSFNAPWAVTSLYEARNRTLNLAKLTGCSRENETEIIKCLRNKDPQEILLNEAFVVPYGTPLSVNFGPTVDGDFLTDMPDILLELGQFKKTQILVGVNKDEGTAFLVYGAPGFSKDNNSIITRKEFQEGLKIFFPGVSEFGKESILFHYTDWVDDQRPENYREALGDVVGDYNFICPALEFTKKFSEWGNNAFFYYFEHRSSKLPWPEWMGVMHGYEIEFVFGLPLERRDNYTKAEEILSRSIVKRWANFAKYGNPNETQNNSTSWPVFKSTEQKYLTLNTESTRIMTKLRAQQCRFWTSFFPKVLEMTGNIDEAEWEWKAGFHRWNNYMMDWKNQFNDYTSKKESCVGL
Acetylcholinesterase, sequence (P22303 whole entry): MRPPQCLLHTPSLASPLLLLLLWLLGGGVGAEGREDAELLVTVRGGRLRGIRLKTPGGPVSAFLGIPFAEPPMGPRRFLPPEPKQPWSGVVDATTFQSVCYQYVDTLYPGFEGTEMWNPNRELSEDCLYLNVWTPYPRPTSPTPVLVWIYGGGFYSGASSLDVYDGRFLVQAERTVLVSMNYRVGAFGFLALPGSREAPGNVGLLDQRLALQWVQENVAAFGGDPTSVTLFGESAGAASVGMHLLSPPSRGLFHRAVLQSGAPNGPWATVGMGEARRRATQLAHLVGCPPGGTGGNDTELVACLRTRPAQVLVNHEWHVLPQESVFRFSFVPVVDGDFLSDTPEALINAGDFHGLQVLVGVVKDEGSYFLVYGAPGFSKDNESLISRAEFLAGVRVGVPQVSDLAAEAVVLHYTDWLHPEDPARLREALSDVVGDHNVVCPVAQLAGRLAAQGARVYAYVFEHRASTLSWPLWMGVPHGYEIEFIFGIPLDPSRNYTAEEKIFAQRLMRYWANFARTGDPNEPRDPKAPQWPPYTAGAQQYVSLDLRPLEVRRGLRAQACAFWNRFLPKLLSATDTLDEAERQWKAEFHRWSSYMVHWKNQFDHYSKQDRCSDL

Compound | IC50 (Cholinesterase) [µM] | Ki (Acetylcholinesterase) [µM] | IC50 (Acetylcholinesterase) [µM]
Nc1c2c(nc3ccccc13)-c1ccccc1C2 | 4.7 | 0.21 | –
Nc1c2c(nc3ccc([N+](=O)[O-])cc13)-c1ccccc1C2 [2-nitro-10H-indeno[1,2-b]quinolin-11-amine] | – | – | > 100
Nc1c2c(nc3cc(Cl)ccc13)-c1ccccc1C2 [3-chloro-10H-indeno[1,2-b]quinolin-11-amine] | – | – | 6.5
Nc1c2c(nc3cc(F)ccc13)-c1ccccc1C2 [3-fluoro-10H-indeno[1,2-b]quinolin-11-amine] | 5.7 | – | 1.2
Nc1c2c(nc3cc([N+](=O)[O-])ccc13)-c1ccccc1C2 [3-nitro-10H-indeno[1,2-b]quinolin-11-amine] | – | – | 67.5
COc1ccc2c(c1)-c1nc3ccccc3c(N)c1C2 [7-methoxy-10H-indeno[1,2-b]quinolin-11-amine] | – | – | 4.3
Cc1ccc2c(c1)-c1nc3ccccc3c(N)c1C2 [7-methyl-10H-indeno[1,2-b]quinolin-11-amine] | – | – | 4.6
Nc1c2c(nc3ccccc13)-c1ccc(Cl)cc1C2 [8-chloro-10H-indeno[1,2-b]quinolin-11-amine] | – | – | 5.4
Nc1c2c(nc3ccccc13)-c1ccc(F)cc1C2 [8-fluoro-10H-indeno[1,2-b]quinolin-11-amine] | 7.1 | – | 0.43
COc1ccc2c(c1)Cc1c-2nc2ccccc2c1N [8-methoxy-10H-indeno[1,2-b]quinolin-11-amine] | – | – | 6.5
COc1cccc2c1Cc1c-2nc2ccccc2c1N [9-methoxy-10H-indeno[1,2-b]quinolin-11-amine] | 3 | – | 1.6
Cc1cccc2c1Cc1c-2nc2ccccc2c1N [9-methyl-10H-indeno[1,2-b]quinolin-11-amine] | – | – | 3.9
Nc1ccc2c(N)c3c(nc2c1)-c1ccccc1C3 [11H-Indeno-[1,2-b]-quinolin-7,10-diamine] | – | – | 29
Nc1ccc2nc3c(c(N)c2c1)Cc1ccccc1-3 [11H-Indeno-[1,2-b]-quinolin-8,10-diamine] | – | – | 5.9
CCCCCCCNc1c2c(nc3ccccc13)-c1ccccc1C2 [N-Heptyl-N-11H-indeno-[1,2-b]-quinolin-10-yl)-amine] | – | – | 4.3
c1ccc(CNc2c3c(nc4ccccc24)-c2ccccc2C3)cc1 [N-benzyl-10H-indeno[1,2-b]quinolin-11-amine] | 0.5 | 7.5 | 7.1
CNc1c2c(nc3ccccc13)-c1ccccc1C2 [N-methyl-10H-indeno[1,2-b]quinolin-11-amine] | 1.6 | – | 1.3
